One series is described as follows: in vivo. The note with it: SD, rat, in vivo, po, 20 umol/kg. The protocol:
All stock solutions of the test compound were sonicated and heated to become clarified and formulated to a 25 mM solution with DMSO.
All samples were dosed at 20 μmol/kg.
The blood sample was centrifuged at 8000 rpm for 5 min, the plasma was collected in a centrifuge tube and stored at −20° C. for use.
Treatment of the plasma sample: the proteins in 50 μL plasma sample were precipitated with 200 μL acetonitrile containing internal standard (Propranolol (PRO), 2.5 ng/mL). Vortexed for 10 min, centrifuged at 6000 g for 10 min, the supernatant was taken and 5-fold diluted with the mobile phase, and the supernatant was injected into a 96-well plate for analysis.
flow rate: 0.3 mL/min; injection volume: 2 μL; column temperature 45° C. The gradient elution procedure was: […]
The ion source was an electrospray ionization source (Turbo Ionspray, ESI); the electrospray voltage was 5500V; the temperature was 500° C.; pressure of ion source gas 1 (N2) was 50 psi; pressure of ion source gas 2 (N2) was 50 psi; pressure of curtain gas (N2) 20 psi; pressure of collision gas (CAD) was Medium; scan time was 100 ms; positive ion mode detection; scan mode was multiple reaction monitoring (MRM), ion reaction and collision energy (CE) for quantitative analysis, declustering potential (DP) are shown in the following table: […]

Series [1] can be described thus: Body weight change of tumor-bearing mice in LU2503 model. As to conditions: QD*21, 21th day. It is filed as in vivo, BALB/c nude mice. The text has this: Tumor tissue was harvested from HuPrime® lung tumor xenograft model LU2503 (R11P6) tumor-bearing mice and cut into 2 to 3 mm diameter tumor blocks subcutaneously inoculated at the right anterior scapular of BALB/c nude mice. When the mean tumor volume reached approximately 139 mm^3, mice were randomly divided to […] based on tumor volume, 8 mice in each group, 4 mice per cage. The day of grouping was defined as day 0. Dosing started on day 0 and ended on day 20. The experiment ended on the 21st day. The experiment was divided into groups of crystal form A of SPH1772 ditartrate (0.3 mg/kg, 3 mg/kg and 30 mg/kg), positive control INC280 (30 mg/kg), positive control Crizotinib (30 mg/kg) and vehicle group, 8 mice in each group, intragastric administration once a day, lasting 21 days.

Series [2] concerns H1993 human lung cancer cell. The experiment in a line: Inhibition of proliferation of human lung cancer H1993 cells (CCK-8). Type of series: cell-based. As to conditions: Homo sapiens, NCI-H1993, 72 h, CCK-8, 72 hours incubation; read-out: IC50, proliferation of H1993 cell line. The procedure: CCK-8 is a kit for detecting cell proliferation, cell survival and cytotoxicity and an alternative method for the MTT method.
All samples were formulated to a 10^−2 M stock solution with DMSO and stored in small quantities at −80° C. for use.
1, Cell culture and inoculation: on the first day of the experiment, took normal cultured cells, when cells were in the exponential growth phase, the cells were dispersed by digesting and then inoculated in a 96-well cell culture plate at a density of 5.5×10^4 cells/mL (representing 55000 cells per mL), 90 μL per well; after completion of inoculation, the microplate was placed at 37° C. under 5% CO2 condition overnight.
According to different cell lines, the starting concentration of each compound was different.
3, Data acquisition: the compound and cells were incubated for 72 hours, the microplate containing the cells was taken out from incubator, 10 μL Cell Counting Kit-8 reaction solution was added to each well, and the microplate was placed in an incubator for 2-3 hours. The absorbance values were measured at 450 nm on the Flexstation 3 and set 650 nm as the reference wavelength.

The term Cmax denotes the highest concentration seen after dosing. One may read the MRT as the average time that molecules of a dose stay in the body. The Tmax is the time from dosing to the highest level.

As to `Cn1cc(-c2cnc3ccc(Cn4nnc5ncc(-c6cnn(C)c6)nc54)cc3c2)cn1` [crystal form A of SPH1772 ditartrate], in “in vivo”, the AUCextra turned out to be 210.83 µM·min, the AUCtot stood at 9012.96 µM·min, the Clearance was 0.12 L/h/kg and the Vz came out at 0.760 L/kg. The molecule also registered a Cmax in “in vivo” (Cmax) of 16 µM. This molecule showed a mean residence time (MRT) in “in vivo” (MRT) of 7.89 h. Besides, the Tmax in the series “in vivo” (Tmax) is 3.33 h. Further, in series [1] (0.3 mg/kg), the “weight change percentage of tumor-bearing mice” value (“weight change percentage” below) is −1.61%. In series [1] (3 mg/kg), the “weight change percentage” value is −1.88%. Also, in series [1] (30 mg/kg), the “weight change percentage” value is reported as −2.01%. Besides, in series [2], the IC50 is 0.7 nM.
